Test results reported in paper PMC10681007, “Targeted Degradation of XIAP is Sufficient and Specific to Induce Apoptosis in MYCN-overexpressing High-risk Neuroblastoma” (Cancer Research Communications, 2023).
Starred links: 1 amine or outer side, 2 acyl side, 3 side chain; linkers in the order of their positions; H or OH if unused. Positions of bridges follow the written chain, without caps; N, C: chain ends. Non-standard residues stand in square brackets, D forms with d. Residues, ends and D or L forms follow the SMILES beside them. Chains are numbered I, II in the order given. Hexamethylenediamine = C(CCCN[*:2])CCN[*:1]; Dip = N[C@H](C(=O)O)C(c1ccccc1)c1ccccc1; Chg = N[C@H](C(=O)O)C1CCCCC1; NMeA = CN[C@@H](C)C(=O)O

Experiments:
Format in all cases: cell-based, Human
XIAP and c-IAP1 = assay: Immunoblot analysis of XIAP and c-IAP1 expression; conditions: 10 µmol/L
Source text: FIGURE 2 Specific loss of XIAP expression, not c-IAP1, is required for mediating apoptosis in high-risk neuroblastoma cells. A, Summary of IAP antagonists’ efficacy in killing neuroblastoma cells. The IAP antagonists were ranked on the basis of the average potency of killing (IC50) and specificity of killing toward only neuroblastoma cells: (i) A4, (ii) B3, (iii) BV6, (iv) LCL161, (v) CUDC-427, (vi) Debio 1143. B, Immunoblot analysis of c-IAP1, XIAP, PARP, and cleaved caspase-3 expression in neuroblastoma cell lines, BE(2)-C and KELLY, and noncancerous normal tissue cell line, HS5, after treatment with 10 µmol/L of either A4, B3, or BV6 at indicated timings (three independent replicates). C, Graphical representation showing the fold change of caspase-3/7 activity relative to vehicle controls after treatment with 10 µmol/L of either A4, B3, or BV6 at indicated timings (data were expressed as mean ± SD of three independent experiments conducted in duplicates; *, P < 0.05). D, Morphology of cells 48 hours posttreatment with 10 µmol/L of either A4, B3, or BV6. […]
Whole cell lysates harvested were lysed in EBC buffer (pH 8.0 of 50 mM Tris, 0.5% NP-40, 120 mM sodium chloride) containing protease inhibitors and protein concentration were quantified using the Bradford assay (Thermo Fisher Scientific). […]

THLE3 (liver origin) = assay: RealTime-Glo MT cell viability assay, noncancerous normal cells
Protocol: (§1) Cell viability was measured in real time using RealTime-Glo MT Cell Viability Assay as according to manufacturer's instructions from Promega. Cells were seeded at 1 × 10^4 cells per well and treated with a range of doses of indicated antagonists, followed by continuous bioluminescence reading every 24 hours for 3 days using luminescent plate reader, Varioskan (SkanIT software). IC50 was determined using GraphPad Prism software.
(§2) To determine their efficacy in neuroblastoma, a panel of neuroblastoma cell lines including neuroblastoma patient-derived cell lines and noncancerous normal tissue-derived cell lines were treated with increasing doses of each antagonist (0–100 µmol/L), followed by real-time measurement of cell viability every 24 for 72 hours.
(§3) To evaluate this, noncancerous normal tissue-derived cell lines THLE3 and HS5 were utilized to evaluate toxicity and tolerability.

HS5 (bone marrow origin) = assay: as above
Protocol: as §1, §2, §3

## CN[C@@H](C)C(=O)N[C@H](C(=O)N1CCC[C@H]1C(=O)N[C@H](C(=O)NCCCCCCNC(=O)[C@@H](NC(=O)[C@@H]1CCCN1C(=O)[C@@H](NC(=O)[C@H](C)NC)C1CCCCC1)C(c1ccccc1)c1ccccc1)C(c1ccccc1)c1ccccc1)C1CCCCC1 [BV6] (I: H-[NMeA][Chg]P[Dip] / II: H-[NMeA][Chg]P[Dip]; linker I:C-II:C via Hexamethylenediamine)
XIAP and c-IAP1; BE(2)-C and KELLY cells
  XIAP and c-IAP1 expression (immunoblot): loss of c-IAP1 expression with no change in XIAP expression
XIAP and c-IAP1; HS5 cells
  XIAP and c-IAP1 expression (immunoblot): loss of c-IAP1 expression with no changes in XIAP expression
THLE3 (liver origin); THLE3, 24 hours
  IC50: 11.3 µM
THLE3 (liver origin); THLE3, 48 hours
  IC50: 6.8 µM
THLE3 (liver origin); THLE3, 72 hours
  IC50: 5.2 µM
HS5 (bone marrow origin); HS5, 24 hours
  IC50: 6.1 µM
HS5 (bone marrow origin); HS5, 48 hours
  IC50: 4.4 µM
HS5 (bone marrow origin); HS5, 72 hours
  IC50: 3.6 µM
